Article PMC1435945, “Prediction of indirect interactions in proteins” (BMC Bioinformatics, 2006)
Marks after values point to notes of the source that are not given here. Where a SMILES comes first, the peptide text is derived from it. [ ]: non-standard residue; d: D form. Tyr(3-I) = N[C@@H](Cc1ccc(O)c(I)c1)C(=O)O; Nle = CCCC[C@H](N)C(=O)O

Experiments:
[1] = biological target: F354 multiple chimeric melanocortin receptor; test: Radioligand binding saturation, chimera F354; details: COS-1, F354, F-set, parts A/B/C MC3/MC5/MC4, pK ± SD
[2] = biological target: F413 multiple chimeric melanocortin receptor; test: Radioligand binding saturation, chimera F413; details: COS-1, F413, F-set, parts A/B/C MC4/MC1/MC3, pK ± SD
[3] = biological target: F451 multiple chimeric melanocortin receptor; test: Radioligand binding saturation, chimera F451; details: COS-1, F451, F-set, parts A/B/C MC4/MC5/MC1, pK ± SD
[4] = biological target: S134 multiple chimeric melanocortin receptor; test: Radioligand binding saturation, chimera S134; details: COS-1, S134, S-set, parts A/B/C MC1/MC3/MC4, pK ± SD
MC3 receptor = details: saturation; MC3 wt.; ref [31]; cited from earlier work
From the text: (§1) Table 1 Affinities of multiple chimeric melanocortin receptors.

MC1 receptor = details: saturation; MC1 wt.; ref [31]; cited from earlier work
From the text: as §1

MC4 receptor = details: saturation; MC4 wt.; ref [31]; cited from earlier work
From the text: as §1

MC5 receptor = details: saturation; MC5 wt.; ref [31]; cited from earlier work
From the text: as §1

[5] = biological target: S531 multiple chimeric melanocortin receptor; test: Radioligand binding saturation, chimera S531; details: COS-1, S531, S-set, parts A/B/C MC5/MC3/MC1, pK ± SD
[6] = biological target: F514 multiple chimeric melanocortin receptor; test: Radioligand binding saturation, chimera F514; details: COS-1, F514, F-set, parts A/B/C MC5/MC1/MC4, pK ± SD

pK (Kd) [1]: 8.80 ± 0.16
pK (Kd) [2]: 8.62 ± 0.16
pK (Kd) [3]: 9.06 ± 0.31
pK (Kd) [4]: 9.30 ± 0.26
pK (Kd) [5]: 8.96 ± 0.35
pK (Kd) [6]: 9.19 ± 0.21
SMILES: CCCC[C@H](NC(=O)[C@H](CO)NC(=O)[C@H](Cc1ccc(O)c(I)c1)NC(=O)[C@H](CO)NC(C)=O)C(=O)NCC(=O)N[C@@H](Cc1c[nH]cn1)C(=O)N[C@H](Cc1ccccc1)C(=O)N[C@@H](CCCNC(=N)N)C(=O)N[C@@H](Cc1c[nH]c2ccccc12)C(=O)NCC(=O)N[C@@H](CCCCN)C(=O)N1CCC[C@H]1C(=O)N[C@H](C(N)=O)C(C)C [^125I-NDP-MSH, [^125I-Tyr^2, Nle^4, D-Phe^7]-α-MSH] (Ac-S[Tyr(3-I)]S[Nle]GH[dF]RWGKPV-NH2)
pK (Kd) (MC3 receptor): 9.40^a
pK (Kd) (MC1 receptor): 9.96^a
pK (Kd) (MC4 receptor): 8.64^a
pK (Kd) (MC5 receptor): 8.54^a
